Results reported in ChEMBL document CHEMBL1129127, “Potent and selective PKC inhibitory 5-membered ring analogs of balanol with replacement of the carboxamide moiety” (Bioorg Med Chem Lett, 1996).

Experiments:
[1] = Inhibition of protein kinase A.
Homo sapiens = organism: Homo sapiens; assay: Inhibition of cellular activity by neutrophil assay; format: functional
[2] = molecular target: Protein kinase C eta type (Homo sapiens, UniProt P24723); assay: Inhibition of protein kinase C eta
[3] = molecular target: T1, Protein kinase C beta type (Homo sapiens, UniProt P05771); assay: Inhibition of protein kinase C beta I
[4] = molecular target: T2, Protein kinase C epsilon type (Homo sapiens, UniProt Q02156); assay: Inhibition of protein kinase C epsilon
T2 sequence (Q02156 whole entry): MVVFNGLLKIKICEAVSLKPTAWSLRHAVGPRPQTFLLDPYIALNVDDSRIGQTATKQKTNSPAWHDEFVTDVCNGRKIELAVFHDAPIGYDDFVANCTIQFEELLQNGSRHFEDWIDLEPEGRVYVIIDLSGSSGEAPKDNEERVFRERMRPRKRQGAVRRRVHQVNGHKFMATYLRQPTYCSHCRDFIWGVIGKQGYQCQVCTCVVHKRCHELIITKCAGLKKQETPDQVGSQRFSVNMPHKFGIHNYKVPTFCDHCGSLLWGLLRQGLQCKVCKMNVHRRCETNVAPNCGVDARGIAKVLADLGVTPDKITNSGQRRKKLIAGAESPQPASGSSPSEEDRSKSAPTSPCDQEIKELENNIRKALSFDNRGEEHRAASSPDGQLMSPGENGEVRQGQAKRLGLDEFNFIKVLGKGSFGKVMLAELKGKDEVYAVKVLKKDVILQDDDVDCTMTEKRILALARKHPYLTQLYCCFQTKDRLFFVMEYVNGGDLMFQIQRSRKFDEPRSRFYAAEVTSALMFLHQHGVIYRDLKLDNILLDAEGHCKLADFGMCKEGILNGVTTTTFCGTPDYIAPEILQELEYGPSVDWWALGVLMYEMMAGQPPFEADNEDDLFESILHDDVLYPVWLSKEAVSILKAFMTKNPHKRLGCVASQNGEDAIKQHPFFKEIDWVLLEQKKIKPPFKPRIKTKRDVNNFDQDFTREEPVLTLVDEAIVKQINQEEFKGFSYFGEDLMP

[5] = molecular target: T1, Protein kinase C beta type; assay: Inhibition of protein kinase C beta II
[6] = molecular target: Protein kinase C gamma type (Homo sapiens, UniProt P05129); assay: Inhibition of protein kinase C gamma
[7] = molecular target: Protein kinase C delta type (Homo sapiens, UniProt Q05655); assay: Inhibition of protein kinase C delta
[8] = molecular target: Protein kinase C alpha type (Homo sapiens, UniProt P17252); assay: Inhibition of protein kinase C alpha

Chain of Protein kinase C eta type (P24723 whole entry): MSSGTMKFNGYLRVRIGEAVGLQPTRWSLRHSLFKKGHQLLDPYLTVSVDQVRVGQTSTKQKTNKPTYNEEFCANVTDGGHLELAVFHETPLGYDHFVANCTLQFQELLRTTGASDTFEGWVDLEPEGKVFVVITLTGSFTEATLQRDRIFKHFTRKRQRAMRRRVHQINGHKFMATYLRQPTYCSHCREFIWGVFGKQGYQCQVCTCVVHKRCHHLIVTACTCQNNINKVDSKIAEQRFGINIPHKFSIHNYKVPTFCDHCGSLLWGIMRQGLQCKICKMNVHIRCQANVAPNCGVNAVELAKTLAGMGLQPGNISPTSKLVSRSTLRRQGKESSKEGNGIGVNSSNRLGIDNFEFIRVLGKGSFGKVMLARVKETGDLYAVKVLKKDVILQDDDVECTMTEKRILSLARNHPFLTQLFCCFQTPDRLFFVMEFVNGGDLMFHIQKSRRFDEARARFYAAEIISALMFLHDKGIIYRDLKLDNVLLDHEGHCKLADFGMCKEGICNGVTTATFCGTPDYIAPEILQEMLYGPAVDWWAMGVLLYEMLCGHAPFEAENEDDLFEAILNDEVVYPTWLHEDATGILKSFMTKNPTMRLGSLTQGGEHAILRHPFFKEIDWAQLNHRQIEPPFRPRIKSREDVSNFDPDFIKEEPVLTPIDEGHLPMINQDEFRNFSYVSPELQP
Chain of Protein kinase C delta type (Q05655 whole entry): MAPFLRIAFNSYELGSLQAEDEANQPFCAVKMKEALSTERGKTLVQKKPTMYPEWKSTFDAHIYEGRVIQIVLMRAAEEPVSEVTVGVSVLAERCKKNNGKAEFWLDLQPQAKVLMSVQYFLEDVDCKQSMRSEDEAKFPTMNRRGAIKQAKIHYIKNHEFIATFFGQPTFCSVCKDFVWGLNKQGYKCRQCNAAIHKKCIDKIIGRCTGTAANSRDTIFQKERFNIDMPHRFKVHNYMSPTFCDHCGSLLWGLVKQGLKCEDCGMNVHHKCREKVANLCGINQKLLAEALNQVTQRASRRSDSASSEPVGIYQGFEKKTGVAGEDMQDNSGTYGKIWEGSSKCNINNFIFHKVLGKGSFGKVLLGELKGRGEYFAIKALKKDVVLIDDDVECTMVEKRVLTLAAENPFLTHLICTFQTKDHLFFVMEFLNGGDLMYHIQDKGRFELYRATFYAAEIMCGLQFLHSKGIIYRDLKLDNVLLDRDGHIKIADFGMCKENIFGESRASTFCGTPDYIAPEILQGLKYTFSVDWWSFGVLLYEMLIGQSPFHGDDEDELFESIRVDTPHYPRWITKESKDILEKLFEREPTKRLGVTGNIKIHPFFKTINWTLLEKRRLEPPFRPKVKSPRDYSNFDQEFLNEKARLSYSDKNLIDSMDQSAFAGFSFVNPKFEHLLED
T1 sequence (P05771 whole entry): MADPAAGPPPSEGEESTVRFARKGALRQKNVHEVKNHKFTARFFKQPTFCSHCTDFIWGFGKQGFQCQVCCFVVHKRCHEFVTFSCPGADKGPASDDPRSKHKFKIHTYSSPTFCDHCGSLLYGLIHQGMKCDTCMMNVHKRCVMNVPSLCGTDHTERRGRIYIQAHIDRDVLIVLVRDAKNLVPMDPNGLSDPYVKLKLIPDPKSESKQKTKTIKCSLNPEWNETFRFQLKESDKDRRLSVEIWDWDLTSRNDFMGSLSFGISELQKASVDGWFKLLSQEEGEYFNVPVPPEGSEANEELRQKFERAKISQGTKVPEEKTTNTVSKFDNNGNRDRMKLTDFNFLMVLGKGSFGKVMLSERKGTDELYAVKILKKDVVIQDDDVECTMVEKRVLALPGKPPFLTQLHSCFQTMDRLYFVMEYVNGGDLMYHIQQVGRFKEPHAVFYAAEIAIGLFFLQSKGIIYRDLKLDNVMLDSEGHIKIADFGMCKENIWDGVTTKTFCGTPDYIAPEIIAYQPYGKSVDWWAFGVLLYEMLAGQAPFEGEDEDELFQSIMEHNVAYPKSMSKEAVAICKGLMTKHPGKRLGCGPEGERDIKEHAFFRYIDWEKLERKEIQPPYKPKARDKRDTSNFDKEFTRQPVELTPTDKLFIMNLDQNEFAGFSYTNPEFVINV

| SMILES | IC50 [1] [nM] | IC50 (Homo sapiens; Homo sapiens) [nM] | IC50 [2] [nM] | IC50 [6] [nM] | IC50 [7] [nM] | other results |
| --- | --- | --- | --- | --- | --- | --- |
| COC(=O)c1cccc(O)c1C(=O)c1c(O)cc(C(=O)OC2CCCC2Cc2ccc(O)cc2)cc1O (stereo not drawn) | > 50000 | – | – | – | – | – |
| O=C(OC1CCCC1Cc1ccc(O)cc1)c1cc(O)c(C(=O)c2c(O)cccc2C(=O)O)c(O)c1 (stereo in doubt; syn) | – | – | – | – | – | IC50 (Homo sapiens): 10000 nM |
| O=C(OC1CCCC1Oc1ccc(O)cc1)c1cc(O)c(C(=O)c2c(O)cccc2C(=O)O)c(O)c1 (stereo not drawn) | 50000 | – | – | – | – | – |
| O=C(NC1CNCC1OC(=O)c1cc(O)c(C(=O)c2c(O)cccc2C(=O)O)c(O)c1)c1ccc(O)cc1 (stereo not drawn) | 70 | > 10000 | 4 | 12 | 5 | IC50 [3]: 10 nM; IC50 [4]: 10 nM; IC50 [5]: 33 nM; IC50 [8]: 22 nM |
| COC(=O)c1cccc(O)c1C(=O)c1c(O)cc(C(=O)OC2CNCC2Cc2ccc(O)cc2)cc1O (stereo not drawn) | – | – | 50 | – | – | – |
| O=C(OC1CNCC1Cc1ccc(O)cc1)c1cc(O)c(C(=O)c2c(O)cccc2C(=O)O)c(O)c1 (stereo not drawn) | 320 | > 10000 | 20 | 40 | 5 | IC50 [4]: 1800 nM |
| O=C(NC1CCCC1OC(=O)c1cc(O)c(C(=O)c2c(O)cccc2C(=O)O)c(O)c1)c1ccc(O)cc1 (stereo not drawn) | – | > 10000 | 1 | – | 1 | – |

Continued, in another order:

| IC50 [1] [nM] | IC50 (Homo sapiens; Homo sapiens) [nM] | IC50 [2] [nM] | IC50 [6] [nM] | IC50 [7] [nM] | SMILES | other results |
| --- | --- | --- | --- | --- | --- | --- |
| 60 | > 10000 | – | – | – | O=C(NC1CNCCCC1OC(=O)c1cc(O)c(C(=O)c2c(O)cccc2C(=O)O)c(O)c1)c1ccc(O)cc1 (racemic) | – |
| 40 | – | 3 | 10 | 16 | O=C(NC1CNCCCC1OC(=O)c1cc(O)c(C(=O)c2c(O)cccc2C(=O)O)c(O)c1)c1ccc(O)cc1 (single isomer, unassigned; (-)) | IC50 [3]: 10 nM; IC50 [5]: 10 nM; IC50 [8]: 30 nM |
| > 50000 | – | – | – | – | O=C(OC1CCCC1Cc1ccc(O)cc1)c1cc(O)c(C(=O)c2c(O)cccc2C(=O)O)c(O)c1 (stereo in doubt; anti) | IC50 (Homo sapiens): 3100 nM |
